The source of these data is US11034913B2, “Metal working fluid” (Henkel AG & Co. KGaA, priority 2015, dated 2021).

SMILES strings stand for the structures. Entries after “also recorded” stand apart in the source; their conditions may differ.

The test deals with mixed Gram-negative bacteria. Nature of the test: Minimum inhibitory concentration testing (biostat candidate screening, Phase 1 and Phase 2; dip slide counts). It counts as cell-based. The note with it: for Biostatic efficacy regarding Gram-negative bacteria compared with the DCHA standard: result in words, 3 wt. % amine in metal working fluid; for Differential Value Scores, Average / Differential Value Scores, Round 1 / Differential Value Scores, Round 2 / Differential Value Scores, Round 3: Phase 1, scale 0-6, 3 = matches DCHA standard; for Differential Value Scores, Average: average of Rounds 1-3; for Differential Value Scores, Round 1 / Differential Value Scores, Round 2 / Differential Value Scores, Round 3: log bacterial counts at 24 and 48 h versus DCHA standard, higher = better.

Where [1] appears, read: Phase 2, Round 1, dilution 3 %, 24 hours.
Where [2] appears, read: Phase 2, Round 1, dilution 3 %, 48 hours.
The mark [3] stands for this setting: Phase 2, Round 1, dilution 4 %, 24 hours.
Setting [4] is: Phase 2, Round 1, dilution 4 %, 48 hours.
The mark [5] stands for this setting: Phase 2, Round 1, dilution 5 %, 24 hours.
The mark [6] stands for this setting: Phase 2, Round 1, dilution 5 %, 48 hours.
The mark [7] stands for this setting: Phase 2, Round 2, dilution 4 %, 24 hours.
Where [8] appears, read: Phase 2, Round 2, dilution 4 %, 48 hours.
[9] abbreviates: Phase 2, Round 2, dilution 5 %, 24 hours.
Where [10] appears, read: Phase 2, Round 2, dilution 5 %, 48 hours.
Where [11] appears, read: Phase 2, Round 2, dilution 6 %, 24 hours.
The mark [12] stands for this setting: Phase 2, Round 2, dilution 6 %, 48 hours.

Turning to `CCCCCCCCN` [Example 6, Octylamine], the “Biostatic efficacy regarding Gram-negative bacteria compared with the DCHA standard” value is recorded as “surpassed the DCHA standard; also recorded: better biostatic performance than the DCHA control”.

Turning to `CCCCC(CC)CN` (stereo not shown) [Example 2, 2-ethylhexylamine], the “Differential Value Scores, Average” value is given as 4.3; the “Differential Value Scores, Round 1” value was 4; the “Differential Value Scores, Round 2” value came to 4.5; the “Differential Value Scores, Round 3” value turned out to be 4.5.

For the molecule `CCCCCCCN` [Example 3, Heptylamine], the “Differential Value Scores, Average” value amounted to 4.2; the “Differential Value Scores, Round 1” value is on record as 4; the “Differential Value Scores, Round 2” value was 4; the “Differential Value Scores, Round 3” value amounted to 4.5. The “Biostatic efficacy regarding Gram-negative bacteria compared with the DCHA standard” value was “better biostatic performance than the DCHA control”.

On to `CCC(N)CCN` (stereo not shown) [C10, 1,3-pentanediamine], for which the “Amount of new Gram-negative bacteria colonies” value (“Amount” for short) under setting [1] is 10^7; the “Amount” value under setting [2] was 10^7; the “Amount” value under setting [3] is recorded as 10^5; the “Amount” value under setting [4] is reported as 10^7; the “Amount” value under setting [5] is reported as 10^3; the “Amount” value under setting [6] was 10^7. Besides, the “Amount” value by setting is: under setting [7], 10^2; under setting [8], 10^7; under setting [9], 10^2; under setting [10], 10^7; under setting [11], 10^2; under setting [12], 10^7.

As to `NC1CCCCC1` [C7, Cyclohexylamine], the “Differential Value Scores, Average” value stood at 1.5; the “Differential Value Scores, Round 1” value is listed as 1; the “Differential Value Scores, Round 2” value worked out at 2.5; the “Differential Value Scores, Round 3” value is 1.

`NC1CCC(CC2CCC(N)CC2)CC1` (stereo not shown) [C11, 4,4′-methylene bis(cyclohexylamine)]: the “Amount” value is, setting by setting: under setting [1], 10^7; under setting [2], 10^7; under setting [3], 10^5; under setting [4], 10^7; under setting [5], 10^5; under setting [6], 10^7. Also, the “Amount” value is recorded as 10^2 under setting [7]; 10^7 under setting [8]; 10^2 under setting [9]; 10^7 under setting [10]; 10^2 under setting [11]; 10^7 under setting [12].

Consider `CCCCCN` [Comparative Example C4, Amylamine], for which the “Differential Value Scores, Average” value is listed as 1.7; the “Differential Value Scores, Round 1” value is given as 1.5; the “Differential Value Scores, Round 2” value came to 2.5; the “Differential Value Scores, Round 3” value came to 1. For the same molecule, the “Biostatic efficacy regarding Gram-negative bacteria compared with the DCHA standard” value was “worse biostatic capabilities than the DCHA control”.

With `CN(C)CCCN(C)CCCN(C)C` [C13, N,N,N′,N″,N″-pentamethyl-dipropylenetriamine], the “Amount” value runs as follows: under setting [1], 10^7; under setting [2], 10^7; under setting [3], 10^7; under setting [4], 10^7; under setting [5], 10^3; under setting [6], 10^7. For the same molecule, the “Amount” value was 10^2 under setting [7]; 10^7 under setting [8]; 10^2 under setting [9]; 10^7 under setting [10]; 10^2 under setting [11]; 10^7 under setting [12].

Take `CN(C)CCN(C)CCN(C)C` [C14, Pentamethyldiethylene triamine]: the “Amount” value by setting is: under setting [1], 10^7; under setting [2], 10^7; under setting [3], 10^7; under setting [4], 10^7; under setting [5], 10^7; under setting [6], 10^7. Besides, the “Amount” value is given as 10^3 under setting [7]; 10^7 under setting [8]; 10^2 under setting [9]; 10^7 under setting [10]; 10^3 under setting [11]; 10^7 under setting [12].

Turning to `CC1CCCCC1N` (stereo not shown) [C5, 2-methylcyclohexylamine], the “Differential Value Scores, Average” value is given as 1.7; the “Differential Value Scores, Round 1” value stood at 1; the “Differential Value Scores, Round 2” value came out at 2.5; the “Differential Value Scores, Round 3” value is 1.5.

Take `NCC1CCCCC1` [C8, Aminomethylcyclohexane]: the “Differential Value Scores, Average” value came out at 1.5; the “Differential Value Scores, Round 1” value was 1; the “Differential Value Scores, Round 2” value turned out to be 2.5; the “Differential Value Scores, Round 3” value is recorded as 1.

In the case of `CCCCC(CC)CN(CC(CC)CCCC)CC(CC)CCCC` (stereo not shown) [C9, Tris(2-ethylhexylamine)], the “Amount” value under setting [1] is 10^7; the “Amount” value under setting [2] is reported as 10^7; the “Amount” value under setting [3] is recorded as 10^5; the “Amount” value under setting [4] was 10^7; the “Amount” value under setting [5] is listed as 10^4; the “Amount” value under setting [6] was 10^7. Besides, the “Amount” value is 10^3 under setting [7]; 10^7 under setting [8]; 10^2 under setting [9]; 10^7 under setting [10]; 10^2 under setting [11]; 10^7 under setting [12].

Consider `CC(C)CCCC(C)N` (stereo not shown) [Example 1, 1,5-dimethylhexylamine], for which the “Differential Value Scores, Average” value worked out at 4.3; the “Differential Value Scores, Round 1” value stood at 4.5; the “Differential Value Scores, Round 2” value worked out at 4; the “Differential Value Scores, Round 3” value stood at 4.5.

As to `NCCCCCCN` [Comparative Example C1, 1,6-diaminohexane], the “Differential Value Scores, Average” value is given as 2.5; the “Differential Value Scores, Round 1” value is recorded as 2; the “Differential Value Scores, Round 2” value worked out at 4; the “Differential Value Scores, Round 3” value amounted to 1.5.

In the case of `CCNC1CCCCC1` [C6, N-ethylcyclohexylamine], the “Differential Value Scores, Average” value worked out at 1.7; the “Differential Value Scores, Round 1” value came out at 1.5; the “Differential Value Scores, Round 2” value stood at 2.5; the “Differential Value Scores, Round 3” value came to 1.

Take `NC1CCC(N)CC1` (stereo not shown) [Example 4, 1,4-cyclohexanediamine]: the “Differential Value Scores, Average” value is given as 3.7; the “Differential Value Scores, Round 1” value is on record as 4; the “Differential Value Scores, Round 2” value amounted to 4.5; the “Differential Value Scores, Round 3” value was 2.5. Further, the “Biostatic efficacy regarding Gram-negative bacteria compared with the DCHA standard” value was “better biostatic performance than the DCHA standard”.

In the case of `NC1CCCCC1N` (stereo not shown) [C3, 1,2-cyclohexanediamine], the “Differential Value Scores, Average” value was determined as 2.3; the “Differential Value Scores, Round 1” value turned out to be 2; the “Differential Value Scores, Round 2” value is listed as 4; the “Differential Value Scores, Round 3” value is 1. Moreover, the “Biostatic efficacy regarding Gram-negative bacteria compared with the DCHA standard” value (listed as Comparative Example 3) is on record as “performed below the DCHA standard”.

For `NCCN(CCN)CCN` [Example 7, Tris(2-aminoethyl)amine], the “Biostatic efficacy regarding Gram-negative bacteria compared with the DCHA standard” value is “surpassed the DCHA standard”. The “Amount” value under setting [2] is 10^3. Under setting [8], the “Amount” value is listed as 10^2. Besides, under setting [10], the “Amount” value was 10^2. Further, under setting [12], the “Amount” value is on record as 10^2.

With `NCC1CCCC(CN)C1` (stereo not shown) [C2, 1,3-bis(aminomethyl)cyclohexane], the “Differential Value Scores, Average” value was 2.5; the “Differential Value Scores, Round 1” value is 2.5; the “Differential Value Scores, Round 2” value was 4; the “Differential Value Scores, Round 3” value is listed as 1.
